This passage reports Activity results from ChEMBL document CHEMBL2073770, “Induction of multidrug resistance gene expression in rat liver cells in response to acute treatment by the DNA-damaging agent methyl methanesulfonate” (Biochem Biophys Res Commun, 1998).

This series concerns the target ATP-dependent translocase ABCB1 (Rattus norvegicus, UniProt P43245). The series is described as follows: TP_TRANSPORTER: RT-PCR in vitro, liver epithelial cells. The series is classed as functional, tissue-based. The settings on record: epithelial cell.

Molecules are shown by their SMILES.

Chain of ATP-dependent translocase ABCB1 (P43245 whole entry): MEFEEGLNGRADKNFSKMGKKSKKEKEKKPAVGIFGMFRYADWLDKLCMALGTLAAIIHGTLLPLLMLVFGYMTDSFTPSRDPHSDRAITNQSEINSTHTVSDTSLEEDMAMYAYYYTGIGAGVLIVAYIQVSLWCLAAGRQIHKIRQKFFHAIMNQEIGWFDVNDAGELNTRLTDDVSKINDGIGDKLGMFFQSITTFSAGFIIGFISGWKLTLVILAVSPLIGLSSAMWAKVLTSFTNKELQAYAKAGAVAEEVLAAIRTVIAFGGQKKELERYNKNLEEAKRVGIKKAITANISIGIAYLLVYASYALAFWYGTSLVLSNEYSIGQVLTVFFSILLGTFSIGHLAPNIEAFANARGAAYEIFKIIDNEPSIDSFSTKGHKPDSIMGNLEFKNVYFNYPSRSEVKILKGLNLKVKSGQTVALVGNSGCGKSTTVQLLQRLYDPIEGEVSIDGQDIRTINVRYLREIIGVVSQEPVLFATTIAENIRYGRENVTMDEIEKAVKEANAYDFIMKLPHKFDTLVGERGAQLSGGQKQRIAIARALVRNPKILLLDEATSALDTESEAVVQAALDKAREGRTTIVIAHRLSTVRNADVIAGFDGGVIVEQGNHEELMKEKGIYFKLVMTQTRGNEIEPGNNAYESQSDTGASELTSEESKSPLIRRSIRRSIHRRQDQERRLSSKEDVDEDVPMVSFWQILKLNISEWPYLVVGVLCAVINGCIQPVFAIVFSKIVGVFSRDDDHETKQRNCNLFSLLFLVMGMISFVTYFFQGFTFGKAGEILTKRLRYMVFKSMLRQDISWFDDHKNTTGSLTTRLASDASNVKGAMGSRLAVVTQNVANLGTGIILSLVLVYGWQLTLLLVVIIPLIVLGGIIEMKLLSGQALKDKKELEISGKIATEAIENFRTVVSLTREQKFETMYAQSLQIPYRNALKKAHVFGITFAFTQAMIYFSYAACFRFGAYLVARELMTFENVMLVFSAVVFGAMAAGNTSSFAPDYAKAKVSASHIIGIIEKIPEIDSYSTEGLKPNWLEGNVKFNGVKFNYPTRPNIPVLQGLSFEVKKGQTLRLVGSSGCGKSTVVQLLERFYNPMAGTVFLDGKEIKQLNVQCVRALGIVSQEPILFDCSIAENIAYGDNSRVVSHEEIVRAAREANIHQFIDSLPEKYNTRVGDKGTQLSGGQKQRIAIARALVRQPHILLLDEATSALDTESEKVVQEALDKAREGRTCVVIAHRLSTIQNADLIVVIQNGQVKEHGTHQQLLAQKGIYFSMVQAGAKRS

As to `COS(C)(=O)=O` [METHANESULFONIC ACID METHYL ESTER], the Activity result is “inducer [+]”.
